“And” between values parts separate entries of the source, which are not always exact repeats. Equal values may be shown once.
Test system: 695427-040-R-J1-PDC complex spheroid viability
Assay: Anticancer human tumor 695427-040-R-J1-PDC patient-derived colon adenocarcinoma cell line growth inhibition [POLQ]
Conditions: for viability, T/C: stronger effect = lower value; for IC50: curve of compound
Method: Multicellular complex tumor spheroid response to Polymerase (POL) inhibitors (novobiocin, ART-558, RP6685) in combination with a variety of drugs and investigational agents in selected tumor cell lines
The POL inhibitors (novobiocin, ART-558, and RP6685) were evaluated both individually and in combination with standard of care and investigational anticancer small molecules within a complex spheroid model of solid tumors. . Complex spheroids include a stromal component modeled by human endothelial cells (HUVEC) and fibroblasts modeled by human mesenchymal stem cells (MSCs). The concentration ranges selected for each drug and investigational agent were based upon clinically achievable concentrations if the clinical Cmax of the agent was known.
Compounds. The drugs and investigational agents: novobiocin (NSC847541), ART-558 (NSC835418), RP-6685 (NSC848927), peposertib (NSC802822), ceralasertib (NSC780249), elimusertib (NSC800525), camonsertib (NSC841442), AZD-1390 (NSC803789), olaparib (NSC753686), talazoparib (NSC767125), rucaparib (NSC756644), sotorasib (NSC818433), MRTX-1133 (NSC836407), SN-38 (NSC673596), topotecan (NSC609699), epotoside (NSC141540), doxorubicin (NSC123127), gemcitabine (NSC613327), 5-fluorouracil (NSC19893), paclitaxel (NSC125973), vemurafenib (NSC761431), MSA-2 (NSC828583), SN-011 (NSC837082), adavosertib (NSC754352), prexasertib (NSC758257), carboplatin (NSC241240) and oxaliplatin (NSC266046), were obtained from the National Cancer Institute (NCI) Developmental Therapeutics Program Chemical Repository (21). The FDA-approved anticancer drug set is available from the Developmental Therapeutics Program at https://dtp.cancer.gov/organization/dscb/obtaining/. […] The stock solutions were prepared in dimethyl sulfoxide (DMSO, Sigma-Aldrich, St. Louis, MO, cat. D2650), except for the platinum compounds which were prepared in saline (Quality Biological, Gaithersburg, MD, cat. 114-055-101), at 800-fold the tested concentration and stored at -70 degrees C prior to their use. All drugs and investigational agents were tested over a range starting from a high concentration at or near the clinical Cmax and decreasing in half-log increments. If the clinical Cmax for an agent had not been determined, the highest concentration tested was 10 microM, except for SN-38, which was tested at a high concentration of 1 microM.
Cell Culture. All cells were maintained in an incubator at 37 degrees C and 5% CO2 with 95% humidity. The PDC lines were cultured according to standard operating procedures established by the NCI PDMR (https://pdmr.cancer.gov). Table 3 of the manuscript, lists the cell lines along with the number of the three cell types plated to form the mct-spheroids and media for tumor cell growth. After thawing, all PDC lines, except 997537-175-T-J1-PDC and 415267-285-R-J2-PDC, were cultured in Matrigel-coated flasks prepared with a working solution of 1X Ham's F-12 nutrient mix, without supplementation (Thermo Fisher Scientific, cat. 11765054), 100 U/mL penicillin-streptomycin (Thermo Fisher Scientific, cat. 15140122), and 2.5% Matrigel (Corning Inc., Corning, NY, cat. 354248) for the first three passages. The two PDC lines 997537-175-T-J1-PDC and 415267-285-R-J2-PDC were cultured on uncoated flasks. The 857933-349-R-J2-PDC line was cultured in 6C/Colon 1B media containing advanced DMEM/F-12 (Thermo Fisher Scientific, cat. 12634028), 10 mM HEPES (Thermo Fisher Scientific, cat. 15630080), 1X GlutaMAX supplement (Thermo Fisher Scientific, cat. 35050061), 0.1 mg/mL primocin (InvivoGen, San Diego, CA, cat. ant-pm-2), 10% defined fetal bovine serum, heat inactivated (HyClone Laboratories Inc., Logan, UT, cat. SH30070.03HI), 50% L-WRN conditioned media (ATCC, cat. CRL-3276), 1.25 mM N-Acetyl-L-cysteine (Sigma-Aldrich, cat. A9165), 10 mM nicotinamide (Sigma-Aldrich, cat. N0636), 1X B-27 supplement (Thermo Fisher Scientific, cat. 17504044), 1X N-2 supplement (Thermo Fisher Scientific, cat. […]
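Further: spheroids exposed to compounds for seven days.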
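Wherever viability, T/C is given: 100% = DMSO vehicle control viability.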

Compound | viability, T/C (compound 0.0316 µM) | viability, T/C (compound 0.1 µM) | viability, T/C (compound 0.316 µM) | viability, T/C (compound 1 µM) | viability, T/C (compound 3.16 µM) | viability, T/C (compound 10 µM) | IC50
C#Cc1c(F)ccc2cc(O)cc(-c3ncc4c(N5CC6CCC(C5)N6)nc(OCC56CCCN5CC(F)C6)nc4c3F)c12 (centres undefined) | 102% (2×) and 106% | 93.8% and 98.8% and 105% | 95% and 98.2% and 97.1% | 98.6% and 102% and 107% | 90.7% and 98.5% and 95% | 76.6% and 91% and 87.1% | > 10 µM
C=CC(=O)N1CCN(c2nc(=O)n(-c3c(C)ccnc3C(C)C)c3nc(-c4c(O)cccc4F)c(F)cc23)C(C)C1 (centres undefined) | 105% and 108% and 107% | 88.5% and 91.5% and 95.3% | 103% and 107% and 106% | 117% and 106% and 121% | 105% and 91.4% and 112% | 113% (2×) and 96.9% | > 10 µM
CC(C)n1c(=O)n(C)c2cnc3cc(F)c(-c4ccc(OCCCN5CCCCC5)nc4)cc3c21 | 96.7% and 98.1% and 112% | 104% and 109% and 101% | 109% and 104% and 106% | 109% (2×) and 124% | 104% and 108% and 101% | 73.4% and 83.2% and 79% | > 10 µM
CC1COCCN1c1cc(-c2ccnn2C)c2ccnc(-c3ccn[nH]3)c2n1 (centres undefined) | 99% and 89.7% and 98.1% | 76.9% and 79.1% and 84.7% | 64.2% and 62% and 69.8% | 53.6% and 51.7% and 67.6% | 48.9% and 46% and 62.1% | 50.2% and 47.4% and 57.1% | 4.35 µM and 1.4 µM and > 10 µM
CC1COCCN1c1cc(C2(O)CC3CCC(C2)O3)c2cnn(-c3ccn[nH]3)c2n1 (centres undefined) | 100% and 101% and 103% | 85.7% and 87.4% and 94.1% | 79.1% and 75.7% and 85.8% | 64.4% and 68.9% and 78.5% | 55.6% and 52% and 69% | 46.3% and 44.4% and 55.9% | 6.3 µM and 5.11 µM and > 10 µM
CC1COCCN1c1cc(C2(S(C)(=N)=O)CC2)nc(-c2ccnc3[nH]ccc23)n1 (centres undefined) | 102% and 96% and 100% | 96% and 102% and 100% | 100% and 94.3% and 98.1% | 103% and 91.7% and 102% | 96.4% and 98.4% and 99.3% | 80.5% and 96.6% and 81.2% | > 10 µM
CCCS(=O)(=O)Nc1ccc(F)c(C(=O)c2c[nH]c3ncc(-c4ccc(Cl)cc4)cc23)c1F | 106% and 102% and 97.1% | 94.9% and 109% and 95.8% | 95.9% and 109% and 96.2% | 108% and 103% and 104% | 110% and 103% and 109% | 87.5% and 88.3% and 86% | > 10 µM
CCc1cc2c(N3CCc4c(cc(Cn5ccnc5)cc4-c4cn(C)nc4C(F)(F)F)C3=O)cc(C)nc2c(OC)n1 | 107% and 108% and 105% | 105% and 101% and 108% | 110% and 98.6% and 100% | 108% and 101% and 96.8% | 104% and 112% and 110% | 96.4% and 97.9% and 106% | > 10 µM
CCc1cc2c(N3CCc4c(cc(Cn5ccnc5)cc4-c4cn(C)nc4C(F)(F)F)C3=O)ccnc2c(OC)n1 | 114% and 91.3% and 93.8% | 97.6% and 96% and 98.8% | 110% and 88.2% and 101% | 106% and 95.6% and 101% | 112% (2×) and 103% | 103% and 96% and 100% | > 10 µM
COc1cc2cc(C(=O)CCC(=O)O)sc2cc1OC | 109% and 100% and 101% | 97.3% and 102% and 99.5% | 97.4% and 105% and 103% | 104% and 105% and 107% | 103% and 102% (2×) | 99.8% and 93.7% and 102% | > 10 µM
COc1ccc([C@@H](O)c2cc(-c3ncnc4cc(N5CCOCC5)ccc34)c(F)cc2Cl)nn1 | 108% and 103% (2×) | 91.8% and 86.1% and 99.5% | 92.8% and 93.3% and 97.7% | 91.9% and 94.2% and 96.2% | 80.1% and 82.6% and 85% | 50% and 59% and 56.5% | > 10 µM
O=C(Nc1ccc(O)c(NS(=O)(=O)c2ccc(F)cc2)c1)c1ccc(-c2ccccc2)cc1 | 112% and 106% (2×) | 94.9% and 102% and 99.2% | 99.2% and 96.5% and 105% | 106% and 111% and 105% | 102% and 101% and 110% | 94% and 98.5% and 90.2% | > 10 µM

Reference: PubChem BioAssay AID1963840 (Molecular Pharmacology Branch, DTP, NCI, 2024)
